# Reference: US20240158370A1, “CK1 alpha AND DUAL CK1 alpha / GSPT1 DEGRADING COMPOUNDS” (Innovo Therapeutics, Inc., priority 2022, published 2024)
# Experiments:
# Type in all cases: cell-based
# [1] = system: Z-138 cells; assay: Z-138 Proliferation Assay (Cell Titer-Glo); conditions: 72 hours; for Ymin (%): % remaining (percent of DMSO control); for EC50: Homo sapiens, Cell Titer-Glo, 4-parameter curve fit
# Experimental: Z-138 Proliferation Assay
# Z-138 cells were cultured in IMDM Medium supplemented with 10% heat in-activated fetal bovine serum and 1% Penicillin-Streptomycin.
# 10 mM stocks of compound were made from fresh powder. DMSO was added to solid compound so that the final concentration was 10 mM. Compounds were vortexed and allowed to sit for 5 minutes to ensure complete solubility. Solvated compound was aliquoted into 1 ml Eppendorf tubes and stored in a −20° C. freezer.
# Z-138 cells were maintained in culture using standard cell culturing techniques.
# Cells were maintained at a density of 0.8×10^6 cells/ml.
# Re-constitute cell titer-glo reagent according to manufacturer's protocol.
# Z-138 cells were removed from culture and cell viability and density were determined using a CellDrop™ Automated Cell Counter with Tryphan blue stain according to manufacturer's protocols. Cells were centrifuged and resuspended using fresh media to a cell density of 0.1×10^6 cells/ml. […] 40 μl of cell suspension was added to the wells of a 384 well tissue culture plate (4,000 cells/well final). Upon completing the addition of the cells to the plate, the plates were centrifuged for 30 seconds at 300 rpms to help the cells settle and to bring air bubbles to the top of the wells. Air bubbles were popped using a pipette tip.
# 10-point dose response curves were performed using a D300e Digital Dispenser. The highest concentration of compound used in the assay was 10,000 nM. 1:2 dilutions were performed over a 10-point range with the final DMSO concentration being 0.1%. The cells were cultured for 72 hours in the presence of compound.
# After 72 hours, the cell plates were removed from the incubator and allowed to equilibrate to room temperature (about 15 minutes). 20 μl of cell titer-glo reagent was added to each well of the 384 well plate. Incubated the plate for 30 minutes in the dark. After 30 minutes, ensured that there were no air bubbles in the plate (popped bubbles with pipette tip if necessary) and analyzed plate using a luminometer.
# EC50 curves were generated using Prism Graph Pad. In brief, POCs (percent of control, compound/DMSO control×100) were plotted against the compound concentrations (log scale). EC50 curves were generated using a 4-parameter curve fit.
# [2] = target: T1, CK1α (Homo sapiens, UniProt P48729+Q96SW2); assay: HiBiT degradation assay, CK1α, Procedure A; conditions: six hours incubation
# T1 construct: CSNK1A1-HiBit KI HEK293(LgBit) Cells; host or cells: HEK293(LgBit) knock-in cells
# How it was run: (§1)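 DC50 and Ymin (% remaining) were derived by four-parameter fitting of luminescence data. The data come from a six-hour, 37° C compound exposure of cells in DMEM/10% FBS over a ten-point range, 10 μM to 0.005 μM, followed by Nano-Glo HiBiT lytic detection.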
# [3] = target: GSPT1 (Homo sapiens, UniProt P15170+Q96SW2); assay: HiBiT degradation assay, GSPT1, Procedure A; design: HiBit-GSPT1 KI HEK293(LgBit) Cells; host or cells: HEK293(LgBit) knock-in cells; conditions: six hours incubation
# How it was run: as §1
# T1 sequence (P48729 whole entry): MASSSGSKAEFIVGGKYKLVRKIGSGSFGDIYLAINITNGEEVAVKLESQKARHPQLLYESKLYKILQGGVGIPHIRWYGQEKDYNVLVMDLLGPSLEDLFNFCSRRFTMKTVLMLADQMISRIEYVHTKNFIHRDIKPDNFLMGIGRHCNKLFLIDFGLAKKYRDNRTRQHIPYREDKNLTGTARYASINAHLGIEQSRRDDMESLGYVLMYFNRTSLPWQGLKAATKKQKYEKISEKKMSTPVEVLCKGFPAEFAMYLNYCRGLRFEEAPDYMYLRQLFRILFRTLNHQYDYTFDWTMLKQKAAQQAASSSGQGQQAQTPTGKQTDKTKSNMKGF
# T1 sequence (Q96SW2 whole entry): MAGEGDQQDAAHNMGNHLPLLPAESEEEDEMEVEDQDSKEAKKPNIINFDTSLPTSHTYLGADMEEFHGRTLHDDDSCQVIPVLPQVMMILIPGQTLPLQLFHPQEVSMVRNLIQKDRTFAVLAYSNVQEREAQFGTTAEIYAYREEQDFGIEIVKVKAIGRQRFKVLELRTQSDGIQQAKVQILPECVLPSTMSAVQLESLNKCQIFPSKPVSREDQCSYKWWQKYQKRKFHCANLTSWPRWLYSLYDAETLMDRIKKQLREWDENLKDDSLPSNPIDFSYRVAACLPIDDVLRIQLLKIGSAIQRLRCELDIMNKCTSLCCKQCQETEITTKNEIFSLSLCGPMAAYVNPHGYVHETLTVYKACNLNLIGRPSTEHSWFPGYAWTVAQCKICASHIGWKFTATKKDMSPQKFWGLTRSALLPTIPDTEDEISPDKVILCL
# T1 sequence (Q16531 whole entry partner): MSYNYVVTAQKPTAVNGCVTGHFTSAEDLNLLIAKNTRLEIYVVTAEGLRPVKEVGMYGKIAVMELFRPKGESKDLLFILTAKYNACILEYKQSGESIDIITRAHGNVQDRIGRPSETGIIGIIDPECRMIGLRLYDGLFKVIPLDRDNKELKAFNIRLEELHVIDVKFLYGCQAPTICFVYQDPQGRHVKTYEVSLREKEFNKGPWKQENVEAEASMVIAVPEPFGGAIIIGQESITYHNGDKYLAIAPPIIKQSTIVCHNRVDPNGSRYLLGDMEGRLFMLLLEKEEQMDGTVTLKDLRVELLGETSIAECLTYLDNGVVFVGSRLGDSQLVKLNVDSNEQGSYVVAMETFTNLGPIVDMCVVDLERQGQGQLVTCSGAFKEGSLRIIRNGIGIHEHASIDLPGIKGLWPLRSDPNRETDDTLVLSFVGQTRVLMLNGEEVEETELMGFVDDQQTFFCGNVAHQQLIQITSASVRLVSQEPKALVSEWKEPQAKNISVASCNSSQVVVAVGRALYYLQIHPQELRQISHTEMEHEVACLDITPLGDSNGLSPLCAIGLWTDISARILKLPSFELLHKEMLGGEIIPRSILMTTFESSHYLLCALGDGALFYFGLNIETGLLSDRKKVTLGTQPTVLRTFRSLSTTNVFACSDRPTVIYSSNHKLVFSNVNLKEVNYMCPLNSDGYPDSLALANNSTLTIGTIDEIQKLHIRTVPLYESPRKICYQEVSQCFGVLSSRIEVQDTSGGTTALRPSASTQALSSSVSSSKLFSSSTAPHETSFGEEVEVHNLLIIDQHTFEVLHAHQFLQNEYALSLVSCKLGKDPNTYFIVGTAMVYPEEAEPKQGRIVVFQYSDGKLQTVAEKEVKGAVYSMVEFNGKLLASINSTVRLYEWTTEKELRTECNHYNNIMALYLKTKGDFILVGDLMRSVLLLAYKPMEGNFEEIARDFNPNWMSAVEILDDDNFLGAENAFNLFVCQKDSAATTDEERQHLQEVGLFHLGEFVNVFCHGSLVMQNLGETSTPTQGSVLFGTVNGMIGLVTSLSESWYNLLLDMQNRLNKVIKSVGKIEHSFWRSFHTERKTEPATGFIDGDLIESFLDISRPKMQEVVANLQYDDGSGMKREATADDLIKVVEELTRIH
# GSPT1, sequence (P15170 whole entry): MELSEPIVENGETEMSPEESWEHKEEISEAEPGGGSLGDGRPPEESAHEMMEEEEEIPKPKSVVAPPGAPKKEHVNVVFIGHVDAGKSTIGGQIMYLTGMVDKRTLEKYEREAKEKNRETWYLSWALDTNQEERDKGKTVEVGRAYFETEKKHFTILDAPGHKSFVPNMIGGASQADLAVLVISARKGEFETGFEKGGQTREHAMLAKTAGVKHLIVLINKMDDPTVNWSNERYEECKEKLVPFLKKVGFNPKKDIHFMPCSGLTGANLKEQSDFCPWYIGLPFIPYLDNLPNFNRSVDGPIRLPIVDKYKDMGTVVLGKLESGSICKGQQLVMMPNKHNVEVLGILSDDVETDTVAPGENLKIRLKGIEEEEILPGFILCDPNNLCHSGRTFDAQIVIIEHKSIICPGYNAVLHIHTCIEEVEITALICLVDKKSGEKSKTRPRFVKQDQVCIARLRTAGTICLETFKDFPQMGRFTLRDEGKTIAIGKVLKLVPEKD
# GSPT1, sequence (Q96SW2 whole entry): as the sequence (Q96SW2 whole entry) above
# GSPT1, sequence (Q16531 whole entry partner): as the sequence (Q16531 whole entry partner) above
CK1α Ymin [2],DC50 [2] [nM],DC50 [3] [nM],GSPT1 Ymin [3],Compound,Ymin (%) [1],EC50 [1] [nM]
D (D = >10- 25% remaining),< 25,≥ 25,F (F = >75-100% remaining),"O=C1CCC(N2Cc3cc(-c4ccn(-c5ccccc5)n4)ccc3C2=O)C(=O)N1 (stereo not drawn) [Example 34, 3-(1-Oxo-5-(1-phenyl-1H-pyrazol-3-yl)isoindolin-2-yl)piperidine-2,6-dione]",E (>10-25% remaining),10 to 100
D (D = >10- 25% remaining),< 25,≥ 25,F (F = >75-100% remaining),"Cn1nc(-c2ccc3c(c2)CN(C2CCC(=O)NC2=O)C3=O)cc1-c1ccccc1 (stereo not drawn) [Example 36, 3-(5-(1-Methyl-5-phenyl-1H-pyrazol-3-yl)-1-oxoisoindolin-2-yl) piperidine-2,6-dione]",E (>10-25% remaining),10 to 100
D (D = >10- 25% remaining),< 25,≥ 25,F (F = >75-100% remaining),"O=C1CCC(N2Cc3cc(-c4coc(-c5ccccc5)n4)ccc3C2=O)C(=O)N1 (stereo not drawn) [Example 37, 3-(1-Oxo-5-(2-phenyloxazol-4-yl)isoindolin-2-yl)piperidine-2,6-dione]",F (>25-50% remaining),10 to 100
E (E = >25-75% remaining),< 25,≥ 25,F (F = >75-100% remaining),"O=C1CCC(N2Cc3cc(-c4cnoc4-c4ccccc4)ccc3C2=O)C(=O)N1 (stereo not drawn) [Example 39, 3-(1-Oxo-5-(5-phenylisoxazol-4-yl)isoindolin-2-yl)piperidine-2,6-dione]",D (0-10% remaining),100 to 500
D (D = >10- 25% remaining),< 25,< 25,D (D = >10- 25% remaining),"Cn1c(-c2ccccc2)cnc1-c1ccc2c(c1)CN(C1CCC(=O)NC1=O)C2=O (stereo not drawn) [Example 40, 3-(5-(1-Methyl-5-phenyl-1H-imidazol-2-yl)-1-oxoisoindolin-2-yl)piperidine-2,6-dione]",D (0-10% remaining),< 10
D (D = >10- 25% remaining),< 25,≥ 25,F (F = >75-100% remaining),"Cn1cc(-c2ccccc2)nc1-c1ccc2c(c1)CN(C1CCC(=O)NC1=O)C2=O (stereo not drawn) [Example 41, 3-(5-(1-Methyl-4-phenyl-1H-imidazol-2-yl)-1-oxoisoindolin-2-yl)piperidine-2,6-dione]",D (0-10% remaining),10 to 100
D (D = >10- 25% remaining),< 25,≥ 25,F (F = >75-100% remaining),"O=C1CCC(N2Cc3cc(-c4cc(-c5ccccc5)no4)ccc3C2=O)C(=O)N1 (stereo not drawn) [Example 43, 3-(1-Oxo-5-(3-phenylisoxazol-5-yl)isoindolin-2-yl)piperidine-2,6-dione]",F (>25-50% remaining),100 to 500
C (C = 0-10% remaining),< 25,≥ 25,F (F = >75-100% remaining),"Cn1cc(-c2c(-c3ccc4c(c3)CN(C3CCC(=O)NC3=O)C4=O)nc(C3CC3)n2C)cn1 (stereo not drawn) [Example 46, 3-(5-(2-Cyclopropyl-1-methyl-5-(1-methyl-1H-pyrazol-4-yl)-1H-imidazol-4-yl)-1-oxoisoindolin-2-yl)piperidine-2,6-dione]",D (0-10% remaining),< 10
C (C = 0-10% remaining),< 25,< 25,D (D = >10- 25% remaining),"O=C1CCC(N2Cc3cc(-c4nccn4C4CCCCC4)ccc3C2=O)C(=O)N1 (stereo not drawn) [Example 48, 3-(5-(1-Cyclohexyl-1H-imidazol-2-yl)-1-oxoisoindolin-2-yl)piperidine-2,6-dione]",D (0-10% remaining),< 10
